Where two headings read alike, the source gives them in different places.
Legend:
[1] = target: T1, Kappa opioid receptor (Homo sapiens, UniProt P41145); assay: DMR agonist and desensitization assay in HEK293-Kappa cells; assay type: cell-based
T1 construct: expressed in transfected cells; host or cells: HEK293-Kappa
Method: (§1) DMR assays were performed using an Epic® BT system (Corning, NY, USA). All used cell lines were directly seeded in Epic 384-well biosensor microplates with a seeding density of 25,000 cells per well. After being cultured for about 22 h, the cells formed a monolayer with a confluency of about 95 % in the cell culture medium. Then the cells were manually washed using assay buffer (1 × HBSS buffer, 10 mM HEPES, pH = 7.4) and maintained in 30 μL of the assay buffer for 1 h. All samples were dissolved in DMSO and diluted freshly with the assay buffer containing 0.1 % BSA.
(§2) The DMR assays were conducted as follows. […] In the case of the DMR desensitization assay, cells were pretreated with analytes for one hour before introducing a specific agonist at the indicated concentration, and the agonist-induced DMR signals were monitored for one hour. Finally, for the DMR antagonist assay, cells underwent a 1-hour pretreatment with an antagonist before the addition of a specific agonist at the indicated concentration, and subsequent DMR signals were recorded over one hour.
The receptor selectivity was evaluated against a set of G protein-coupled receptors (GPCRs), including opioid receptor (Delta/Kappa/NOP), dopamine receptor (D1/D2), orphan receptor (GPR35), adrenergic receptor (α2A/β2), serotonin receptor (5HT2A), histamine receptor (H1) and cannabinoid receptor (CB1). Following a 1-hour pretreatment with DK, a 2-min baseline was established before introducing probes and monitoring DMR signals for another hour. The cells and probes were as follows: Delta, HEK293-Delta, SNC162; Kappa, HEK293-Kappa, ICI199441; NOP, HEK293-NOP, MCOPPB; D1, HEK293-D1, dopamine; D2, HEK293-D2, dopamine; GPR35, CHO-K1-hGPR35, zaprinast; 5HT2A, HEK293-5HT2A, 5-hydroxytryptamine; α2A, HEK293-α2A, L-Noradrenaline; β2, A431, isoprenaline; H1, A431, histamine; CB1, CHO-K1-CB1, CP 55940. The other detailed process was the same as above.

[2] = target: T2, NOP opioid receptor (Homo sapiens, UniProt P41146); assay: DMR agonist and desensitization assay in HEK293-NOP cells; assay type: cell-based
T2 construct: expressed in transfected cells; host or cells: HEK293-NOP
Method: as §1, §2
The receptor selectivity was evaluated against a set of G protein-coupled receptors (GPCRs), including opioid receptor (Delta/Kappa/NOP), dopamine receptor (D1/D2), orphan receptor (GPR35), adrenergic receptor (α2A/β2), serotonin receptor (5HT2A), histamine receptor (H1) and cannabinoid receptor (CB1). […]

[3] = test system: C57BL/6 male mice; assay: Formalin paw test; assay type: in vivo
Method: The formalin test in mice was conducted following established procedures. Six-week-old C57BL/6 male mice were used in […] (n = 6). Mice were individually acclimated in a 4-liter glass beaker for 30 min prior to the test. Solvent mixture, […], morphine (5 mg/kg), or DK (20, 40 mg/kg) were injected intraperitoneally (5 mL/kg) 15 min prior to formalin injection. Formalin solution (5 %, 25 μL) was injected into the dorsal surface of the right hind paw using a 50 μL Hamilton syringe with a 30-gauge needle. […] Evaluation of MOR agonistic activity of dihydrokoumine, naloxone (2 mg/kg) was first injected intraperitoneally, immediately followed by the injection of morphine (5 mg/kg) or DK (20 mg/kg).

[4] = test system: CHO cells; assay: Cytotoxicity assay (CCK-8), CHO; assay type: cell-based; conditions: 24 h
Method: (§3) HEK293T, CHO, and HUVEC cell lines were cultured overnight in 96-well plates before exposure to compounds for 24 h. Cell viability was evaluated using the Cell Counting Kit-8 (CCK-8, Beyotime Biotechnology, China), and absorbance at 450 nm was measured with a microplate reader. Cell survival rates were calculated relative to control conditions.

[5] = Pharmacokinetics, oral bioavailability; assay type: in vivo, SD male rats; conditions: rats, 20 mg/kg (method)
Method: Oral bioavailability evaluation was as follows. SD male rats (about 250 g) were used in bioavailability evaluation (n = 3). […] were given a single dose of DK (20 mg/kg, 5 mL/kg, […].) through intragastric administration or tail vein injection. Blood (300 μL) was collected at 0.083, 0.167, 0.25, 0.5, 1, 2, 4, 6, 8, and 10 h, into EDTA tubes. Plasma was obtained by mixing with acetonitrile and centrifugation (3000 r/min, 10 min).
Brain and plasma drug levels were measured by LC-30AD (Shimadzu Corporation Kyoto, Japan) and SCIEX QTRAP-6500 (AB Sciex, Foster City, CA, USA) and calculated by comparing with internal standard (koumine, 200 ng/mL). The used column was Waters ACQUITY UPLC BEH C18 (2.1*150 mm, 1.7 μm); the mobile phase was composed of (A) 0.1 % FA in water and (B) 0.1 % FA in ACN; the elution gradient was 20 % B (0–3 min), 20–40 % B (3–5 min), 40–95 % B (5–6 min); the flow rate was 0.3 mL/min; and detection was in the positive mode.

[6] = target: T3, M3R (Homo sapiens, UniProt P20309); assay: FLIPR Ca2+ antagonist assay in HEK293-M3 cells (carbachol-induced); assay type: cell-based
T3 construct: expressed in transfected cells; host or cells: HEK293 cell membranes
Method: (§4) FLIPR assay was carried out as reported earlier. Cell lines were seeded in 96-well plates with black walls (Greiner, USA) at 8.0 × 10^4 cells per well. After approximately 22 h of incubation, the cells were exposed to Calcium-6 dye (Molecular Devices, USA) in HBSS buffer supplemented with 20 mM HEPES (pH 7.4) at 37°C for one hour. Samples, redissolved in DMSO and housed in 96-well drug plates, underwent dilution with FLIPR buffer and subsequent automated introduction to the cells. […] In FLIPR antagonist experiments, cells were pre-incubated with the compound for 10 min prior to introducing a specified concentration of agonist. Results were presented as fluorescence (arbitrary units) plotted against time.

[7] = target: T4, mu opioid receptor (MOR) (Homo sapiens, UniProt P35372); assay: FLIPR Ca2+ assay in HEK293T-Mu cells; assay type: cell-based
T4 construct: expressed in transfected cells; host or cells: HEK293T-Mu
Method: as §4

[8] = target: T4, mu opioid receptor (MOR); assay: DMR assay in HEK293T-Mu cells (agonist, desensitization, antagonist); assay type: cell-based
Method: as §1, §2

[9] = test system: HUVEC cells; assay: Cytotoxicity assay (CCK-8), HUVEC; assay type: cell-based; conditions: 24 h
Method: as §3

T4 sequence (P35372 whole entry): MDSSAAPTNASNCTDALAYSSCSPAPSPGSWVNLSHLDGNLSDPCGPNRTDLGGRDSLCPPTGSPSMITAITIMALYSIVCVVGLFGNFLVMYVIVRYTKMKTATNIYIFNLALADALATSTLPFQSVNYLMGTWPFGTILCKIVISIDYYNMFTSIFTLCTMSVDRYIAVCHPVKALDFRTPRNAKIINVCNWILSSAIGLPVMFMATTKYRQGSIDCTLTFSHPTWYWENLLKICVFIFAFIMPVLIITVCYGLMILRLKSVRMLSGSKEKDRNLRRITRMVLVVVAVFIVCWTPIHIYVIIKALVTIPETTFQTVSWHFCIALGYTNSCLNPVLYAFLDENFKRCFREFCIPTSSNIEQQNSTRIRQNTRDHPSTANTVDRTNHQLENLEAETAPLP
T1 sequence (P41145 whole entry): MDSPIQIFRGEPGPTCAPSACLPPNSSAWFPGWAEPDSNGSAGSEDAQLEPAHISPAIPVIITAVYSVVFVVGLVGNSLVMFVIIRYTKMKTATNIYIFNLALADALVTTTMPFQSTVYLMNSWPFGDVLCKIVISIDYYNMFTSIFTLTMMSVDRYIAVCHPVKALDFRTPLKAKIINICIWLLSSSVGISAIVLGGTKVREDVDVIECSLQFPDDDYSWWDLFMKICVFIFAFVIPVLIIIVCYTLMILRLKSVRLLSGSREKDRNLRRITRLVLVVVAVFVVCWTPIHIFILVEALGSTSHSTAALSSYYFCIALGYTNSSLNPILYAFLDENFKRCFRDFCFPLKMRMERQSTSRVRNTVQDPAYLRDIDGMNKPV
T3 sequence (P20309 whole entry): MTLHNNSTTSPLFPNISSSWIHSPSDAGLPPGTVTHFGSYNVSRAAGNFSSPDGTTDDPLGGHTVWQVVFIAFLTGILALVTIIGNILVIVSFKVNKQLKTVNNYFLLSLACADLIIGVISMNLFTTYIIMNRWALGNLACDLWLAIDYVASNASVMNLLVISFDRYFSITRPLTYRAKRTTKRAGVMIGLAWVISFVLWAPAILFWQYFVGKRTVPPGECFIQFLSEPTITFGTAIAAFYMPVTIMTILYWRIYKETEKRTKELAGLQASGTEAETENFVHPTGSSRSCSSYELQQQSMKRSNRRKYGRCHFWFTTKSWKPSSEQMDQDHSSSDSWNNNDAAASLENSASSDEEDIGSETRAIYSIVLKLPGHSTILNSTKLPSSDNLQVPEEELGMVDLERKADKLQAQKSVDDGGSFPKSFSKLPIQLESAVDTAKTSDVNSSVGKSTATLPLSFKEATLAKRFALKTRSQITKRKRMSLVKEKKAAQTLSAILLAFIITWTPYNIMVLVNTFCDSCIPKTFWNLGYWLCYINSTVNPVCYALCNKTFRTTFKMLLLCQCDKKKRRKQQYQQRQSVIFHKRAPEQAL
T2 sequence (P41146 whole entry): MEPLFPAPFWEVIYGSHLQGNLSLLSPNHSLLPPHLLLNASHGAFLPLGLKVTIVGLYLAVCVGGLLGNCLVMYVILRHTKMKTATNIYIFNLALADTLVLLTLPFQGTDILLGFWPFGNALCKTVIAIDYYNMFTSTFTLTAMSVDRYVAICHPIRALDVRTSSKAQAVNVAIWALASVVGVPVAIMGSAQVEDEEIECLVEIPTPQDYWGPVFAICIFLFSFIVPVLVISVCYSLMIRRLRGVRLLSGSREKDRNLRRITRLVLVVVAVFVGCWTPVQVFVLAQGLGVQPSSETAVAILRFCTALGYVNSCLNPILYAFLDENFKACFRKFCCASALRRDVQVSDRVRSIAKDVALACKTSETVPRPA

C=CC12CN(C)C3CC14c1ccccc1NC4C1CC2C3CO1 (stereo not drawn) [DK]
DMR agonist response ([1]; HEK293-Kappa cells): unable to trigger a concentration-dependent DMR response | probe-induced DMR response after DK pretreatment ([1]; HEK293-Kappa, 25 nM ICI199441, pretreatment one hour): had little effect on the DMR response produced by the respective probes | antagonist effect at high concentration (decrease of probe DMR response) ([1]; HEK293-Kappa, ICI199441, high-concentration of DK): very weak antagonist effects | DMR agonist response ([2]; HEK293-NOP cells): unable to trigger a concentration-dependent DMR response | probe-induced DMR response after DK pretreatment ([2]; HEK293-NOP, 25 nM MCOPPB, pretreatment one hour): had little effect on the DMR response produced by the respective probes | effect of naloxone on antinociception in formalin test ([3]; DK 20 mg/kg, naloxone 2 mg/kg): Naloxone antagonized the antinociception of DK | licking time in Phase I and Phase II ([3]; DK 20, 40 mg/kg i.p., formalin 5 %): remarkable decrease in the licking time in Phase I at both doses and in Phase II at high doses | cytotoxicity (cell viability) [4]: noncytotoxic | AUC ([5]; male, SD (Sprague-Dawley), rat, iv, plasma, i.v., read-out: (AUC)0-12 h, intravenous injection): 902 ng·h/mL | bioavailability ([5]; male, SD (Sprague-Dawley), rat, plasma, oral, i.g. vs i.v.): 42.6% | AUC ([5]; male, SD (Sprague-Dawley), rat, po, plasma, i.g., read-out: (AUC)0-12 h, intragastric administration): 384 ng·h/mL | time of highest plasma concentration ([5]; intragastric (i.g.) administration): 15 min | IC50 ([6]; FLIPR, 5 nM carbachol (Fig. 2D), read-out: IC50 for inhibition of carbachol-induced Ca2+ response): 11.6 ± 4.31 µM | concentration-dependent inhibition of carbachol-induced Ca2+ response at M3R compared with purified DK ([6]; semisynthesized material): its activity was close to that of purified DK | Ca2+ response after naloxone pretreatment ([7]; 100 μM DK): significantly decreased by naloxone | maximum Ca2+ response compared with endomorphin-1 ([7]; FLIPR): less than half of the maximum Ca^2+ response of endomorphin-1 | maximum DMR response compared with endomorphin-1 [8]: half of the maximum DMR response of endomorphin-1 | DMR response after naloxone pretreatment ([8]; 100 μM DK, naloxone pretreatment one hour): could be antagonized by naloxone | EC50 ([8]; DMR agonist assay, read-out: EC50 of DMR response): 16.3 ± 1.05 µM | concentration-dependent DMR response at MOR compared with purified DK ([8]; semisynthesized material): its activity was close to that of purified DK | cytotoxicity (cell viability) [9]: noncytotoxic
